In patent publication US9943525B2, “Composition for reducing cell senescence comprising Rho-kinase inhibitor and use thereof” (Samsung Electronics Co., Ltd., priority 2014, dated 2018):

Experiments:
[1] = tested on: senescent progeric fibroblasts (cell passage 17); assay: microscopic observation of cell number and shape; assay type: cell-based, human; conditions: 4 weeks, FIG. 17; for numbers of cells: vs DMSO
Protocol: (§1) Progeric fibroblasts (Hutchinson-Gilford Progeria Syndrome Skin Fibroblasts, Coriell Cell Repositories, AG03198 B) were cultured in Dulbecco's Modified Eagle's Media (DMEM) supplemented with 10% fetal bovine serpm (FBS) and 100 unit/ml of penicillin, and 100 μg/ml of streptomycin (two antibiotics are purchased from Gibro-BRL and Grand Island, N.Y.) in a 5% CO2 incubator at 37° C. Subculturing was initiated when the cells were approximately 85% confluent in plates. Early subcultures were performed at a split ratio of 1:4, and later subcultures were performed at a split ratio of 1:2. When cell doubling time was 14 days, the cells were regarded as senescent progeric fibroblasts (cell passages 16 to 17).
(§2) The senescent progeric fibroblasts (cell passage 17) were seeded on each well of a 6-well plate in a concentration of 2,000 cells/well and cultured in the presence of 5 μM of Y-27632, 5 μM of FASUDIL, and 0.5 μM of SR3677 for 4 weeks in a 5% CO2 incubator at 37° C. The culture media were changed at every 4 days with new culture media supplemented with 5 μM of Y-27632, 5 μM of FASUDIL, and 0.5 μM of SR3677. A negative control group was prepared in the same manner, except that 0.05 (v/v) % of DMSO was used.
FIG. 17 illustrates microscopic images of cells cultured in the presence of 5 μM of Y-27632, 5 μM of FASUDIL, and 0.5 μM of SR3677. In “a” of FIG. 17, a portion was selected, marked by a rectangle with a dashed line, and enlarged in a1 for closer examination of the cultured cells. In a1 of FIG. 17, a portion of a1 was selected, marked by a rectangle with a dashed line, and enlarged in a2 for much closer examination of the cultured cells (Scale bar 20 um).

[2] = tested on: senescent fibroblasts (after 37 cell passages); assay: mitochondrial ROS (MitoSOX) by flow cytometry; assay type: cell-based, human; conditions: vs control, p<0.05, FIG. 10
Protocol: In addition, damage of mitochondria was identified by measuring reactive oxygen species (ROS) and mitochondrial membrane potentials which are well known in the art. ROS were measured using a 0.2 μM MitoSOX (Invitrogen, M3608) according to manufacturer's manuals. Light having a wavelength of 520 nm was irradiated to the cells using a FACSCaliber (Beckton Dickinson), and light emission was measured at 580 nm. The results were analyzed using a Cell Quest 3.2 software (Beckton Dickinson). […] In FIG. 10, * indicates statistically significant (p<0.05).

[3] = tested on: senescent myoblasts (11 cell passages); assay: mitochondrial membrane potential (JC-1) by flow cytometry; assay type: cell-based, Human; conditions: vs control, p<0.05, FIG. 16
Protocol: Myoblast cell lines (Human Skeletal Muscle Myoblasts, Lonza CC-2580 LOT:0000387550) were cultured in SkBM™-2 Basal Media (Lonza CC-3246) including an SkGM™-2 SingleQuots™ Kit (Lonza CC-3244) on plates coated with Collagen Type I (Greiner Bio One, 658950) in a 5% CO2 incubator at 37° C. Subculture was initiated when the cells were approximately 85% confluent in plates. Early subcultures were performed at a split ratio of 1:4, and later subcultures were performed at a split ratio of 1:2. When cell doubling time was 14 days, the cells were regarded as senescent myoblasts (cell passages 10 to 12).
as §2, with “Senescent cells” for “The senescent progeric fibroblasts (cell passage 17)”, “plate coated with Collagen Type I (Greiner Bio One, 657950)” for “plate”, “cells/well. Senescent myoblasts (passage 11) were” for “cells/well and”
Mitochondrial membrane potentials were measured using a MitoProbe™ JC-1 Assay kit for Flow Cytometry (Life technologies, T3168) according to manufacturer's manuals. JC-1 is accumulated in mitochondria in a potential-dependent manner, and this accumulation is identified by fluorescence emission shift from green (about 529 nm) to red (about 590 nm). As a result, mitochondrial depolarization is identified by a decrease in a red/green fluorescence ratio. The mitochondrial membrane potentials were measured by excitation at 488 nm using a FACSCaliber (Beckton Dickinson) and using a flow cytometer by using 530/30 nm and 585/42 nm band pass filters. The results were analyzed using Cell Quest 3.2 software (Beckton Dickinson).

[4] = tested on: senescent progeric fibroblasts (cell passage 17); assay: mitochondrial ROS (MitoSOX) by flow cytometry; assay type: cell-based, human; conditions: vs control, p<0.05, FIG. 19
Protocol: as §1, §2
In addition, damage of mitochondria was identified by measuring reactive oxygen species (ROS) and mitochondrial membrane potentials which are well known in the art. ROS were measured using a 0.2 μM MitoSOX (Invitrogen, M3608) according to manufacturer's manuals. Light having a wavelength of 520 nm was irradiated to the cells using a FACSCaliber (Beckton Dickinson), and light emission was measured at 580 nm. The results were analyzed using Cell Quest 3.2 software (Beckton Dickinson). FIG. 19 is a graph displaying reactive oxygen species of progeric fibroblasts (cell passage 17) cultured in the presence of Rho-kinase inhibitors Y-27632 (5 μM), Fasudil (5 μM), and SR3677 (0.5 μM). […] In FIG. 19, * indicates statistically significant (p<0.05).

[5] = tested on: senescent progeric fibroblasts (passage 17); assay: lipofuscin autofluorescence by flow cytometry; assay type: cell-based, human; conditions: 4 weeks, vs control, p<0.05, FIG. 18
Protocol: as §1
In addition, the amounts of lipofuscin accumulated in the cultured cells were measured. Senescent progeric fibroblasts (passage 17) were cultured in the presence of 5 μM of Y-27632, 5 μM of FASUDIL, and 0.5 μM of SR3677 for 4 weeks in a 5% CO2 incubator at 37° C. The culture media were changed at every 4 days with new culture media supplemented with 5 μM of Y-27632, 5 μM of FASUDIL, and 0.5 μM of SR3677. Since lipofuscin has autofluorescence characteristics, light having a wavelength of 488 nm was irradiated to the cells by using a FACSCaliber (Beckton Dickinson) and light emission at 520 nm was measured. The results were analyzed using Cell Quest 3.2 software (Beckton Dickinson). FIG. 18 is a graph displaying amounts of lipofuscin in progeric fibroblasts (passage 17) cultured in the presence of Rho-kinase inhibitors Y-27632 (5 μM), Fasudil (5 μM), and SR3677 (0.5 μM). […] In FIG. 18, * indicates statistically significant (p<0.05).

SMILES	cell shape ([1]; 5 μM)	numbers of cells ([1]; 5 μM)	ROS ([2]; 5 μM)	action potentials of mitochondria (mitochondrial membrane potential) ([3]; 5 μM)	ROS ([4]; 5 μM)	amounts of lipofuscin ([5]; 5 μM)	cell shape ([1]; 0.5 μM)	numbers of cells ([1]; 0.5 μM)	ROS ([2]; 0.5 μM)	action potentials of mitochondria (mitochondrial membrane potential) ([3]; 0.5 μM)	ROS ([4]; 0.5 μM)	amounts of lipofuscin ([5]; 0.5 μM)
O=S(=O)(c1cccc2cnccc12)N1CCCNCC1 [FASUDIL, 5-(1,4-diazepane-1-sulfonyl)isoquinoline]	spindle shape generally found in young cells	greater than that of the control group	significantly reduced	significantly increased	significantly reduced	significantly reduced	–	–	–	–	–	–
C[C@@H](N)[C@H]1CC[C@H](C(=O)Nc2ccncc2)CC1 [Y-27632, (1R,4R)-4-((R)-1-aminoethyl)-N-(pyridin-4-yl)cyclohexanecarboxamide]	spindle shape generally found in young cells	greater than that of the control group	significantly reduced	significantly increased	significantly reduced	significantly reduced	–	–	–	–	–	–
CN(C)CCOc1cc(-c2cn[nH]c2)ccc1NC(=O)C1COc2ccccc2O1 (stereo not drawn) [SR3677]	–	–	–	–	–	–	spindle shape generally found in young cells	greater than that of the control group	significantly reduced	significantly increased	significantly reduced	significantly reduced
